Assay results as given in patent publication US20260092061A1, “COMPOUNDS FOR TARGETED PROTEIN DEGRADATION” (Amphista Therapeutics Limited, priority 2022, published 2026).

Biological target: T1, BRD9 (Homo sapiens, UniProt Q9H8M2)
T1 sequence (Q9H8M2 1-597): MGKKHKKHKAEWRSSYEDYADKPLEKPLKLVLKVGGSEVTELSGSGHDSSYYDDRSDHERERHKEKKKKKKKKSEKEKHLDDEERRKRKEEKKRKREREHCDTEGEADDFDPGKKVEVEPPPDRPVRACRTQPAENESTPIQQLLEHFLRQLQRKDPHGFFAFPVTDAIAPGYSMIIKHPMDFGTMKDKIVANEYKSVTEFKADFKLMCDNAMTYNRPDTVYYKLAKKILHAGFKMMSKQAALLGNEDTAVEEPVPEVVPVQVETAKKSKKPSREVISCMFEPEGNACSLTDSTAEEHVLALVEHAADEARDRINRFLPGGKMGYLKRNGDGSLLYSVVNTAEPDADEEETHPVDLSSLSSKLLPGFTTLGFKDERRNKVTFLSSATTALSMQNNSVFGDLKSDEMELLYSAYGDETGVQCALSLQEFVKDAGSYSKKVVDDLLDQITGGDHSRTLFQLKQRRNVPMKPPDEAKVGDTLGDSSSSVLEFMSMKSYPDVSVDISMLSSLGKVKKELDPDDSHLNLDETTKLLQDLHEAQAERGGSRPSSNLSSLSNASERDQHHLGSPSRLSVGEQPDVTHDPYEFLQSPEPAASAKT
Assay: Degradation of BRD9 (IF), immunofluorescence in MV4-11 cells, 24 hours (Assay Protocol 2)
Assay type: cell-based
Parameters: A suspension of MV4-11 cells (ATCC CRL-9591) was prepared; host or cells: MV4-11
Conditions: BRD9 degradation; for DC50: Assay protocol 2, read-out: DC50; for Dmax: MV4-11, Assay protocol 2, read-out: Dmax
Summary of the method: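 MV4-11 cells treated with compound 24 h at 37° C., then fixed, permeabilised and immunostained for BRD9 (anti-BRD9 E4Q3F, Alexa 647 secondary, Hoechst counterstain). High-content imaging quantified nuclear BRD9 signal; % BRD9 remaining normalised to DMSO and 100 nM CFT-8634 controls.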

Structure (SMILES)	DC50 [nM]	Dmax [%]
COc1cc(-c2cn(C)c(=O)c(C)c2C)cc(OC)c1CN1CCN(Cc2cccc3c2CCN(C(=O)/C(C#N)=C/C2(C)CCOC2)C3C)C2(CC2)C1 (mixture of isomers) [Compound B174, (E/Z)-2-(5-((7-(2,6-dimethoxy-4-(1,4,5-trimethyl-6-oxo-1,6-dihydropyridin-3-yl)benzyl)-4,7-diazaspiro[2.5]octan-4-yl)methyl)-1-methyl-1,2,3,4-tetrahydroisoquinoline-2-carbonyl)-3-(3-methyltetrahydrofuran-3-yl)acrylonitrile]	< 1.25	> 75
COc1cc(-c2cn(C)c(=O)c(C)c2C)cc(OC)c1CN1CCC(O)(Cc2cccc3c2CCN(C(=O)/C(C#N)=C/C(C)(C)C)C3C)CC1 (mixture of isomers) [Compound B175, (E/Z)-2-(5-((1-(2,6-dimethoxy-4-(1,4,5-trimethyl-6-oxo-1,6-dihydropyridin-3-yl)benzyl)-4-hydroxypiperidin-4-yl)methyl)-1-methyl-1,2,3,4-tetrahydroisoquinoline-2-carbonyl)-4,4-dimethylpent-2-enenitrile]	25 to 1000	40 to 70
COc1cc(-c2cn(C)c(=O)c(C)c2C)cc(OC)c1CN1C2CC1CN(C(=O)/C(C#N)=C/c1cccc(C(F)(F)F)n1)C2 (mixture of isomers) [Compound B188, (E/Z)-2-(6-(2,6-dimethoxy-4-(1,4,5-trimethyl-6-oxo-1,6-dihydropyridin-3-yl)benzyl)-3,6-diazabicyclo[3.1.1]heptane-3-carbonyl)-3-(6-(trifluoromethyl)pyridin-2-yl)acrylonitrile]	< 1.25	> 75
COc1cc(-c2cn(C)c(=O)c(C)c2C)cc(OC)c1CN1C2CC1CN(C(=O)/C(C#N)=C/C1(F)CC1)C2 (mixture of isomers) [Compound B189, (E/Z)-2-(6-(2,6-dimethoxy-4-(1,4,5-trimethyl-6-oxo-1,6-dihydropyridin-3-yl)benzyl)-3,6-diazabicyclo[3.1.1]heptane-3-carbonyl)-3-(1-fluorocyclopropyl)acrylonitrile]	1.25 to 10	> 75
COc1cc(-c2cn(C)c(=O)c(C)c2C)cc(OC)c1CN1C[C@@H](C)N(C(=O)/C(C#N)=C/C(C)(C)C)C[C@@H]1C (mixture of isomers) [Compound B190, (E/Z)-2-((2R,5S)-4-(2,6-dimethoxy-4-(1,4,5-trimethyl-6-oxo-1,6-dihydropyridin-3-yl)benzyl)-2,6-dimethylpiperazine-1-carbonyl)-4,4-dimethylpent-2-enenitrile]	25 to 1000	40 to 70
COc1cc(-c2cn(C)c(=O)c(C)c2C)cc(OC)c1CN1CCN(Cc2cccc3c2CCN(C(=O)C(C#N)=CC24CC(OC)(C2)C4)C3C)C2(CC2)C1 (mixture of isomers) [Compound B191, (E/Z)-2-(5-((7-(2,6-dimethoxy-4-(1,4,5-trimethyl-6-oxo-1,6-dihydropyridin-3-yl)benzyl)-4,7-diazaspiro[2.5]octan-4-yl)methyl)-1-methyl-1,2,3,4-tetrahydroisoquinoline-2-carbonyl)-3-(3-methoxybicyclo[1.1.1]pentan-1-yl)acrylonitrile]	< 1.25	> 75
COc1cc(-c2cn(C)c(=O)c(C)c2C)cc(OC)c1CN1CCN(Cc2ccc3c(c2)[C@@H](C)N(C(=O)/C(C#N)=C/C(C)(C)C)CC3)CC12CC2 (mixture of isomers) [Compound B199, (E/Z)-2-(7-((4-(2,6-dimethoxy-4-(1,4,5-trimethyl-6-oxo-1,6-dihydropyridin-3yl)benzyl)-4,7-diazaspiro[2.5]octan-7-yl)methyl)-1-methyl-1,2,3,4-tetrahydroisoquinoline-2-carbonyl)-4,4-dimethylpent-2-enenitrile]	25 to 1000	40 to 70
COc1cc(-c2cn(C)c(=O)c(C)c2C)cc(OC)c1CN1CCN(Cc2ccc3c(c2)[C@H](C)N(C(=O)/C(C#N)=C/C(C)(C)C)CC3)CC12CC2 (mixture of isomers) [Compound B200, (E/Z)-2-(7-((4-(2,6-dimethoxy-4-(1,4,5-trimethyl-6-oxo-1,6-dihydropyridin-3yl)benzyl)-4,7-diazaspiro[2.5]octan-7-yl)methyl)-1-methyl-1,2,3,4-tetrahydroisoquinoline-2-carbonyl)-4,4-dimethylpent-2-enenitrile]	1.25 to 10	> 75

Results, then the molecule that gave them:

DC50 [nM]	Dmax [%]	Structure (SMILES)
< 1.25	> 75	COc1cc(-c2cn(C)c(=O)c(C)c2C)cc(OC)c1CN1CCN(Cc2cccc3c2CCN(C(=O)/C(C#N)=C/C(C)(C)C)C3C(C)C)CC1 (mixture of isomers) [Compound C7, (E/Z)-2-(5-((4-(2,6-dimethoxy-4-(1,4,5-trimethyl-6-oxo-1,6-dihydropyridin-3-yl)benzyl)piperazin-1-yl)methyl)-1-isopropyl-1,2,3,4-tetrahydroisoquinoline-2-carbonyl)-4,4-dimethylpent-2-enenitrile]
< 1.25	> 75	COc1cc(-c2cn(C)c(=O)c(C)c2C)cc(OC)c1CN1CCN(Cc2cccc3c2CCN(C(=O)/C(C#N)=C/C(C)(C)C)C3C(C)C)C2(CC2)C1 (mixture of isomers) [Compound C8, (E/Z)-2-(5-((7-(2,6-dimethoxy-4-(1,4,5-trimethyl-6-oxo-1,6-dihydropyridin-3-yl)benzyl)-4,7-diazaspiro[2.5]octan-4-yl)methyl)-1-isopropyl-1,2,3,4-tetrahydroisoquinoline-2-carbonyl)-4,4-dimethylpent-2-enenitrile]
1.25 to 10	> 75	COc1cc(-c2cn(C)c(=O)c(C)c2C)cc(OC)c1CN1CCN(Cc2cccc3c2CCN(C(=O)/C(C#N)=C/C(C)(C)C)C3C(C)C)CC12CC2 (mixture of isomers) [Compound C10, (E/Z)-2-(5-((4-(2,6-dimethoxy-4-(1,4,5-trimethyl-6-oxo-1,6-dihydropyridin-3-yl)benzyl)-4,7-diazspiro[2.5-]octan-7-yl)methyl)-1-isopropyl-1,2,3,4-tetrahydroisoquinoline-2-carbonyl)-4,4-dimethylpent-2-enenitrile]
1.25 to 10	40 to 70	COc1cc(-c2cn(C)c(=O)c(C)c2C)cc(OC)c1CN1CCCN(Cc2cccc3c2CCN(C(=O)/C(C#N)=C/C(C)(C)C)C3C(C)C)CC1 (mixture of isomers) [Compound C11, (E/Z)-2-(5-((4-(2,6-dimethoxy-4-(1,4,5-trimethyl-6-oxo-1,6-dihydropyridin-3-yl)benzyl)-1,4-diazepan-1-yl)methyl)-1-isopropyl-1,2,3,4-tetrahydroisoquinoline-2-carbonyl)-4,4-dimethylpent-2-enenitrile]
25 to 1000	70 to 75	COc1cc(-c2cn(C)c(=O)c(C)c2C)cc(OC)c1CN1C[C@H](C)N(Cc2cccc3c2CCN(C(=O)/C(C#N)=C/C(C)(C)C)C3C(C)C)C[C@H]1C (mixture of isomers) [Compound C12, (E/Z)-2-(5-(((2S,5R)-4-(2,6-dimethoxy-4-(1,4,5-trimethyl-6-oxo-1,6-dihydropyridin-3-yl)benzyl)-2,5-dimethylpiperazin-1-yl)methyl)-1-isopropyl-1,2,3,4-tetrahydroisoquinoline-2-carbonyl)-4,4-dimethylpent-2-enenitrile]
< 1.25	> 75	COc1cc(-c2cn(C)c(=O)c(C)c2C)cc(OC)c1CN1CCN(Cc2cccc3c2CCN(C(=O)/C(C#N)=C/C(C)(C)C)C3C(F)F)C2(CC2)C1 (mixture of isomers) [Compound C13]
